Reference: patent US20240150368A1, “ULK INHIBITORS AND METHODS OF USE THEREOF” (Deciphera Pharmaceuticals, LLC, priority 2022, published 2024)

Assays:
ULK2 kinase = biological target: T1, ULK2 kinase (Homo sapiens, UniProt Q8IYT8); experiment: Biochemical assay for ULK2 (coupled pyruvate kinase/lactate dehydrogenase assay); settings: 1 mM ATP, 1 nM ULK2; read-out: ULK2 (inhibition of biochemical activity), IC50
T1 construct: (residues 1-306 with N-terminal GST and His tag; ID NO: 2); purchased Signal Chem U02-11G
Method in brief: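 Continuous PK/LDH-coupled NADH oxidation assay (A340) with 1 nM ULK2, 200 μM ULKtide and 1 mM ATP in Tris pH 7.5, 15 mM MgCl2, 1% DMSO, read 6 h at 30° C. Rates from the 2-3 h window converted to percent inhibition against no-compound and known-inhibitor controls; IC50 by four-parameter sigmoidal fit.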

[1] = test system: ULK kinase substrate ATG13 (pS318-ATG13) in MiaPaCa-2 cells; experiment: pATG13 levels of mutant KRas MiaPaCa-2 cells after treatment with ULK inhibitors in combination with trametinib (ELISA); assay type: cell-based, human
Method in brief: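 MiaPaCa-2 cells grown overnight, then dosed with test compound titration plus trametinib (final 250 nM) or DMSO, overnight at 37° C. Lysate pS318-ATG13 measured by sandwich ELISA (total ATG13 capture, biotinylated pS318 detection, HRP/TMB, A450 minus A540); % phosphorylation vs control wells fitted to IC50.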

LRRK2 kinase = biological target: T2, LRRK2 kinase (Homo sapiens, UniProt Q5S007); experiment: Biochemical assay for LRRK2 (coupled pyruvate kinase/lactate dehydrogenase assay); settings: 26.4 nM LRRK2, 1 mM ATP; read-out: LRRK2 (inhibition of LRRK2 kinase activity, IC50)
T2 construct: (residues 970-2528; ID NO; 3); purchased Thermo Fisher
Experimental: Biochemical Assay for LRRK2 (SEQ. ID NO. 3)
Activity of LRRK2 kinase was determined spectroscopically using a coupled pyruvate kinase/lactate dehydrogenase assay that continuously monitors the ATP hydrolysis-dependent oxidation of NADH (e.g., Schindler et al. Science (2000) 289: 1938-1942). Assays were conducted in 384-well plates (100 μL final volume) using 26.4 nM LRRK2 (Thermo Fisher), 0.1 mM peptide substrate (RLGRDKYKTLRQIRQ), 1.5 units pyruvate kinase, 2.1 units lactate dehydrogenase, 1 mM phosphoenol pyruvate, 0.28 mM NADH and 1 mM ATP in assay buffer (100 mM Tris, pH 7.5, 15 mM MgCl2, 0.5 mM DTT, 0.004% (w/v) BSA, and 0.004% Triton X-100). Inhibition of LRRK2 was measured by adding serial diluted test compound (final assay concentration of 1% DMSO). A decrease in absorption at 340 nm was monitored continuously for 6 h at 30° C. on a multi-mode microplate reader (BioTek). The reaction rate was calculated using the 2-3 h time frame. The reaction rate at each concentration of compound was converted to percent inhibition using controls (i.e., reaction with no test compound and reaction with a known inhibitor) and IC50 values were calculated using software routines in Prism (GraphPad software).

T1 sequence (Q8IYT8 with tags, fused parts or gaps): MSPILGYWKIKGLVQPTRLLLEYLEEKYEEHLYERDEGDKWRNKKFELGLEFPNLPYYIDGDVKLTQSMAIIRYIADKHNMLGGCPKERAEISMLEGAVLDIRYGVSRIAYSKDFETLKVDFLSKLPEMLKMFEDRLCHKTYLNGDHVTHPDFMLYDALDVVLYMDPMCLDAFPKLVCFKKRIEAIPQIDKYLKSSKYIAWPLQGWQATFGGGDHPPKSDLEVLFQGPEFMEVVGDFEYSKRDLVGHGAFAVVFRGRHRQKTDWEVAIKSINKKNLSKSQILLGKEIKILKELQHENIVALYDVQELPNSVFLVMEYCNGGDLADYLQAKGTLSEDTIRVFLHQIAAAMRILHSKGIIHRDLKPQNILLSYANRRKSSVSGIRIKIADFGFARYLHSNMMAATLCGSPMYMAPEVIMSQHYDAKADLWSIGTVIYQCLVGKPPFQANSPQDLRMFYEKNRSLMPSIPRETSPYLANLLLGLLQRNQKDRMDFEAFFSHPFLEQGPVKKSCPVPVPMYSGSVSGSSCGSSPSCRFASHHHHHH
T2 sequence (Q5S007 with tags, fused parts or gaps): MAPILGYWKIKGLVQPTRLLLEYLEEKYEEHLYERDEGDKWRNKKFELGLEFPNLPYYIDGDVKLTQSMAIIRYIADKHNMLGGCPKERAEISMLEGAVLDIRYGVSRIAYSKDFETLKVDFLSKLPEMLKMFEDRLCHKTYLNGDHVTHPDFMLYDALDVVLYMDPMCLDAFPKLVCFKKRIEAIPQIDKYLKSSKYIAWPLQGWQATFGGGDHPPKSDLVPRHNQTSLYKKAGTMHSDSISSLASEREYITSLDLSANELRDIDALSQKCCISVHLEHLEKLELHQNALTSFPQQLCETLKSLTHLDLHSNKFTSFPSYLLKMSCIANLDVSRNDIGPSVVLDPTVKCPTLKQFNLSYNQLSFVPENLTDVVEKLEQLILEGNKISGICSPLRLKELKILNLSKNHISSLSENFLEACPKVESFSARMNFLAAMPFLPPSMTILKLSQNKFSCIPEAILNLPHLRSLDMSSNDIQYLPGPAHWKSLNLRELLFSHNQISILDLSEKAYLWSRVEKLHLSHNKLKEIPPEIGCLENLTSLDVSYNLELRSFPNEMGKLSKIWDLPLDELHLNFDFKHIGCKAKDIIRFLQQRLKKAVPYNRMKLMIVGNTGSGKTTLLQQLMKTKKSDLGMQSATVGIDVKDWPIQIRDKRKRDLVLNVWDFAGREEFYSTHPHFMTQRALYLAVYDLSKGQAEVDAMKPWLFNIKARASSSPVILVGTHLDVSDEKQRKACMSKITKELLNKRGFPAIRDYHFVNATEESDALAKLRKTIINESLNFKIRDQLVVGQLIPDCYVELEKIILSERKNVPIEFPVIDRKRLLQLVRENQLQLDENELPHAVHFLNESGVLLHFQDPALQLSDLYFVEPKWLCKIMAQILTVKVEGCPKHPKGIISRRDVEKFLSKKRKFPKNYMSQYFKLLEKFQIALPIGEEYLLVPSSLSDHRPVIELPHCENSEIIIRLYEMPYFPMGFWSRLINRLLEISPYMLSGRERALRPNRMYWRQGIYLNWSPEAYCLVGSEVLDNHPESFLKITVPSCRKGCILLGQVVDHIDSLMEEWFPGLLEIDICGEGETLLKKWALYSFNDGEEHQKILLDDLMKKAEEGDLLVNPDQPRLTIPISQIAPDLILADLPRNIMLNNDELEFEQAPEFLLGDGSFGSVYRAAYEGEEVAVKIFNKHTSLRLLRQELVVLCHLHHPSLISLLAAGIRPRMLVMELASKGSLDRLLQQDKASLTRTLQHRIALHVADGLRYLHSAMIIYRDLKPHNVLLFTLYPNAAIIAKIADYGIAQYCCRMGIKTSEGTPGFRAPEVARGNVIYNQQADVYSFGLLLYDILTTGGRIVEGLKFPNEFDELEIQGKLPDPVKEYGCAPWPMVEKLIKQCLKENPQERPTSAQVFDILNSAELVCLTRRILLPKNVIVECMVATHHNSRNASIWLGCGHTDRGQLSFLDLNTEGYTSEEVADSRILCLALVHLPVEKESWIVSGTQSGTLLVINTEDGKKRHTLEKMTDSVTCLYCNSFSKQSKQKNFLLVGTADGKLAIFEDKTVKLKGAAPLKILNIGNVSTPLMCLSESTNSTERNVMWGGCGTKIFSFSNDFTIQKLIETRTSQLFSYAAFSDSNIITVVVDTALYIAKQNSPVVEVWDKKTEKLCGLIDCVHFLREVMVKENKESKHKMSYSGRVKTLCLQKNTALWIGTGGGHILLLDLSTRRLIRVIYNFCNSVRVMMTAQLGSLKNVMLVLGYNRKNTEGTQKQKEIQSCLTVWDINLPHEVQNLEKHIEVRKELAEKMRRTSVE

Row | SMILES | IC50 (ULK2 kinase) | IC50 [1] | IC50 (LRRK2 kinase)
1 | CC/C(Nc1ccc(N2CCN(C(C)C)CC2)cc1)=C1/C(=O)Nc2ccc(C(=O)NC[C@H]3CCCO3)cc21 [Example 47] | 10 to 100 nM | ≤ 100 nM | 100 to 300 nM
2 | CC/C(Nc1ccc(N2CC3(CN(C)C3)C2)cc1)=C1/C(=O)Nc2ccc(C(=O)NCC(F)(F)F)cc21 [Example 62] | 10 to 100 nM | ≤ 100 nM | ≤ 100 nM
3 | CC/C(Nc1ccc(N2CCN(C(C)C)CC2)cn1)=C1/C(=O)Nc2ccc(C(=O)NC[C@H]3CCCO3)cc21 [Example 93] | 10 to 100 nM | ≤ 100 nM | ≤ 100 nM
4 | CC/C(Nc1cnc(N2CCN(C(C)C)CC2)cn1)=C1/C(=O)Nc2ccc(C(=O)NCC(F)(F)F)cc21 [Example 94] | 10 to 100 nM | ≤ 100 nM | 100 to 300 nM
5 | CC/C(Nc1cn[nH]c1)=C1/C(=O)Nc2ccc(C(=O)NCC(F)(F)F)cc21 [Example 108] | 10 to 100 nM | 100 to 300 nM | 100 to 300 nM
6 | CC/C(Nc1cnn(C(C)C)c1)=C1/C(=O)Nc2ccc(C(=O)NCC(F)F)cc21 [Example 112] | 10 to 100 nM | ≤ 100 nM | ≤ 100 nM
7 | CC/C(Nc1cnn(C(F)(F)F)c1)=C1/C(=O)Nc2ccc(C(=O)NCC(F)(F)F)cc21 [Example 113] | 10 to 100 nM | ≤ 100 nM | 100 to 300 nM
8 | CC/C(Nc1cnn(C(F)F)c1)=C1/C(=O)Nc2ccc(C(=O)NCC(F)(F)F)cc21 [Example 114] | 10 to 100 nM | ≤ 100 nM | ≤ 100 nM
9 | CC/C(Nc1cnn(C(C)C)c1)=C1/C(=O)Nc2ccc(C(=O)N[C@H](C)C(F)(F)F)cc21 [Example 119] | 10 to 100 nM | ≤ 100 nM | ≤ 100 nM
10 | CC/C(Nc1cnn(C(C)C)c1)=C1/C(=O)Nc2ccc(C(=O)N(C)CC(F)(F)F)cc21 [Example 125] | 10 to 100 nM | 100 to 300 nM | ≤ 100 nM
11 | CC/C(Nc1cnn(C(C)C)c1)=C1/C(=O)Nc2ccc(C(=O)NCC(C)C)cc21 [Example 130] | 10 to 100 nM | ≤ 100 nM | ≤ 100 nM
12 | CC/C(Nc1cnn(C(C)C)c1)=C1/C(=O)Nc2ccc(C(=O)NCCOC(F)(F)F)cc21 [Example 136] | 10 to 100 nM | ≤ 100 nM | 300 to 600 nM
13 | CC/C(Nc1cnn(C(C)C)c1)=C1/C(=O)Nc2ccc(C(=O)NCC3CCC(C)(C)O3)cc21 (stereo not drawn) [Example 137] | 10 to 100 nM | 100 to 300 nM | 100 to 300 nM
14 | CC/C(Nc1cnn(C(C)C)c1)=C1/C(=O)Nc2ccc(C(=O)NCC3(C(F)(F)F)CC3)cc21 [Example 140] | 10 to 100 nM | ≤ 100 nM | ≤ 100 nM
15 | CC/C(Nc1ccc2nn(C(C)C)cc2c1)=C1/C(=O)Nc2ccc(C(=O)NCC(F)(F)F)cc21 [Example 142] | 10 to 100 nM | 100 to 300 nM | ≤ 100 nM
16 | CC/C(Nc1cnn(C(C)C)c1)=C1/C(=O)Nc2ccc(C(=O)NCC3(F)CC3)cc21 [Example 152] | ≤ 10 nM | ≤ 100 nM | ≤ 100 nM

Now from value to molecule:

Row | IC50 (ULK2 kinase) | IC50 [1] | IC50 (LRRK2 kinase) | SMILES
17 | 10 to 100 nM | ≤ 100 nM | ≤ 100 nM | CC/C(Nc1cnn(C(C)C)c1)=C1/C(=O)Nc2ccc(C(=O)NCC(F)(F)F)cc21 [Example 4, (Z)-3-(1-((1-isopropyl-1H-pyrazol-4-yl)amino)propylidene)-2-oxo-N-(2,2,2-trifluoroethyl)indoline-5-carboxamide]
18 | 10 to 100 nM | ≤ 100 nM | 100 to 300 nM | CC/C(Nc1cnn(C2CCN(C(C)C)CC2)c1)=C1/C(=O)Nc2ccc(C(=O)NCC(F)(F)F)cc21 [Example 8]
19 | 10 to 100 nM | ≤ 100 nM | 100 to 300 nM | CC/C(Nc1cnn(C2CCN(C(C)C)CC2)c1)=C1/C(=O)Nc2ccc(C(=O)NCCC#N)cc21 [Example 26]
20 | ≤ 10 nM | ≤ 100 nM | ≤ 100 nM | CC/C(Nc1cnn(C2CCN(C(C)C)CC2)c1)=C1/C(=O)Nc2ccc(C(=O)NCCC(F)(F)F)cc21 [Example 31]
21 | 10 to 100 nM | ≤ 100 nM | 100 to 300 nM | CC/C(Nc1cnn(C2CCN(C3CCOCC3)CC2)c1)=C1/C(=O)Nc2ccc(C(=O)NCC(C)C)cc21 [Example 37]
22 | 10 to 100 nM | ≤ 100 nM | 100 to 300 nM | CC/C(Nc1cnn(C2CCNCC2)c1)=C1/C(=O)Nc2ccc(C(=O)NC[C@H]3CCCO3)cc21 [Example 52]
23 | 10 to 100 nM | ≤ 100 nM | 300 to 600 nM | CC/C(Nc1cnn(C2CN(C)C2)c1)=C1/C(=O)Nc2ccc(C(=O)NC[C@H]3CCCO3)cc21 [Example 54]
24 | 100 to 500 nM | ≤ 100 nM | 100 to 300 nM | CC/C(Nc1cnn(C)c1)=C1/C(=O)Nc2ccc(C(=O)NC[C@H]3CCCO3)cc21 [Example 55]
25 | 100 to 500 nM | ≤ 100 nM | 300 to 600 nM | CC/C(Nc1cnn(C2CCN(C(C)C)CC2)c1)=C1/C(=O)Nc2ccc(C(=O)NC[C@@H](C)OC)cc21 [Example 58]
26 | 10 to 100 nM | ≤ 100 nM | ≤ 100 nM | CC/C(Nc1cnn(C(C)C)c1)=C1/C(=O)Nc2ccc(C(=O)NC[C@H]3CCCO3)cc21 [Example 95]
27 | 100 to 500 nM | ≤ 100 nM | 100 to 300 nM | CC/C(Nc1cnn(C2CCN(C(C)C)CC2)c1)=C1/C(=O)Nc2ccc(C(=O)NCCOC)cc21 [Example 98]
28 | 10 to 100 nM | ≤ 100 nM | ≤ 100 nM | CC/C(Nc1cnn([C@H]2CCOC2)c1)=C1/C(=O)Nc2ccc(C(=O)NCC(F)(F)F)cc21 [Example 104]
29 | 10 to 100 nM | ≤ 100 nM | ≤ 100 nM | CC/C(Nc1cnn(CC)c1)=C1/C(=O)Nc2ccc(C(=O)NCC(F)(F)F)cc21 [Example 107]
30 | 10 to 100 nM | ≤ 100 nM | ≤ 100 nM | CC/C(Nc1cnn(C2CC2)c1)=C1/C(=O)Nc2ccc(C(=O)NCC(F)(F)F)cc21 [Example 116]
31 | ≤ 10 nM | ≤ 100 nM | ≤ 100 nM | CC/C(Nc1cnn(C2CCC2)c1)=C1/C(=O)Nc2ccc(C(=O)NCC(F)(F)F)cc21 [Example 117]
32 | 10 to 100 nM | ≤ 100 nM | ≤ 100 nM | CC/C(Nc1cnn(C2COC2)c1)=C1/C(=O)Nc2ccc(C(=O)NCC(F)(F)F)cc21 [Example 118]
33 | 100 to 500 nM | ≤ 100 nM | 100 to 300 nM | CC/C(Nc1cnn(C2CCN(C(C)C)CC2)c1)=C1/C(=O)Nc2ccc(C(C)=O)cc21 [Example 123]
34 | 10 to 100 nM | ≤ 100 nM | 100 to 300 nM | CC/C(Nc1cnn(C(C)C)c1)=C1/C(=O)Nc2ccc(C(=O)NCC(C)(C)F)cc21 [Example 135]
35 | 10 to 100 nM | ≤ 100 nM | ≤ 100 nM | CC/C(Nc1cnn(C)c1)=C1/C(=O)Nc2ccc(C(=O)NCC3(F)CC3)cc21 [Example 154]
36 | 10 to 100 nM | ≤ 100 nM | 100 to 300 nM | CC/C(Nc1cnn(CC(F)F)c1)=C1/C(=O)Nc2ccc(C(=O)NCC(C)(C)F)cc21 [Example 161]
37 | ≤ 10 nM | ≤ 100 nM | ≤ 100 nM | CC/C(Nc1cnn(C2CCOCC2)c1)=C1/C(=O)Nc2ccc(C(=O)NCC(C)(C)F)cc21 [Example 173]
